Laboratory results taken from patent publication US12428413B2 (CHDI Foundation, Inc., priority 2019, dated 2025).
Counter-ions that a name gives are not always drawn. Like-named read-outs stand apart in the source and are kept apart here.

Key:
[1] = test system: cellular ROCK activity (cofilin phosphorylation at Ser3) in A7r5 rat smooth muscle cells; assay: Cellular ROCK activity: cofilin (Ser3) phosphorylation, In-Cell Western assay; type: cell-based; settings: Rattus norvegicus, 1 hour compound incubation, phospho-cofilin (Ser3), read-out: CELL_IC50
How it was run: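 A7r5 rat smooth muscle cells (3000/well, overnight) exposed to compound for 1 h at 37° C., then formaldehyde-fixed. Phospho-cofilin Ser3 detected by In-Cell Western with 800CW secondary antibody, read at 700 and 800 nm on an Odyssey imager.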

[2] = target: T1, human catalytic domain ROCK II protein (amino acids 5-554) with a N-terminal GST tag (Homo sapiens, UniProt O75116)
T1 sequence (O75116 5-554): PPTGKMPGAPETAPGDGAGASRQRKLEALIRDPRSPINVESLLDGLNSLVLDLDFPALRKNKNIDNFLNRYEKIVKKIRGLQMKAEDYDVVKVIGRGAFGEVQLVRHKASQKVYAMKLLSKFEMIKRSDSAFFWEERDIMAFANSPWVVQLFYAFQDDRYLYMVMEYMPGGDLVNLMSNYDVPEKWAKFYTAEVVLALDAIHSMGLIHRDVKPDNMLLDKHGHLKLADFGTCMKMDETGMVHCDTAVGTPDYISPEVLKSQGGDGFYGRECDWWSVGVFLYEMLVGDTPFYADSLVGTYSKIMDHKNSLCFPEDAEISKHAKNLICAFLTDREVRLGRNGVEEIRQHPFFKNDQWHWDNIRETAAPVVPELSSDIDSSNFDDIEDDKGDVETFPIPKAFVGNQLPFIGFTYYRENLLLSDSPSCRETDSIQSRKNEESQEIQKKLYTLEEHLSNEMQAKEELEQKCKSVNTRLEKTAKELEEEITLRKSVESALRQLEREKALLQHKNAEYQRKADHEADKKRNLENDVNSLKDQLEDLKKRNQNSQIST

[3] = target: T1, human catalytic domain ROCK II protein (amino acids 5-554) with a N-terminal GST tag; assay: biochemical
[4] = test system: hepatic ischemia/reperfusion in rats; settings: oral pretreatment, 25% in vehicle-treated animals; cited from earlier work
[5] = from 1 through 7 hours after instillation; cited from earlier work

SMILES | IC50 ([1]; A7R5, 1 h) [µM] | IC50 [3] [µM] | also measured
COc1cccc([C@@H](C)NC(=O)N2CCN(c3ccncc3F)C[C@H]2C)c1F [Example 44, (R)—N—((R)-1-(2-Fluoro-3-methoxyphenyl)ethyl)-4-(3-fluoropyridin-4-yl)-2-methylpiperazine-1-carboxamide] | 0.323 | – | IC50 [2]: 0.0263 µM
COc1cccc([C@@H](C)NC(=O)N2CCN(c3ccncc3F)[C@H](C)C2)c1 [Example 91, (R)-4-(3-Fluoropyridin-4-yl)-N—((R)-1-(3-methoxyphenyl)ethyl)-3-methylpiperazine-1-carboxamide] | 0.783 | 0.15 | –
COc1cccc(CNC(=O)N2[C@H](C)CN(c3ccncc3F)C[C@H]2C)c1 [Example 95, (2R,6R)-4-(3-Fluoropyridin-4-yl)-N-(3-methoxybenzyl)-2,6-dimethylpiperazine-1-carboxamide] | 1.16 | 0.0383 | –
C[C@@H]1CN(c2ccncc2F)C[C@@H](C)N1C(=O)N[C@H](C)c1cccc2c1CCO2 [Example 96, (2R,6R)—N—((R)-1-(2,3-Dihydrobenzofuran-4-yl)ethyl)-4-(3-fluoropyridin-4-yl)-2,6-dimethylpiperazine-1-carboxamide] | 0.0347 | 0.0065 | –
COc1cccc([C@@H](C)NC(=O)N2[C@H](C)CN(c3ccncc3F)C[C@H]2C)c1 [Example 97, (2R,6R)-4-(3-Fluoropyridin-4-yl)-N—((R)-1-(3-methoxyphenyl)ethyl)-2,6-dimethylpiperazine-1-carboxamide Formate] | 0.114 | 0.012 | –
COc1cccc([C@@H](C)NC(=O)N2C[C@@H]3C[C@H]2CN3c2ccncc2F)c1 [Example 99] | ≥ 5 | 3.12 | –
COc1cccc([C@@H](C)NC(=O)N2CCN(c3ccncc3F)C(=O)C2)c1 [Example 100, (R)-4-(3-Fluoropyridin-4-yl)-N-(1-(3-methoxyphenyl)ethyl)-3-oxopiperazine-1-carboxamide] | – | 2.12 | IC50 [1]: ≥ 5 µM
C[C@@H]1CN(c2ccnc(F)c2)CCN1C(=O)NCc1ccccc1Cl [Example 106] | 1.62 | 0.184 | –
COc1cccc(CNC(=O)N2CCN(c3ccnc(F)c3)C[C@H]2C)c1 [Example 107] | 1.07 | 0.0422 | –
COc1ccc(F)c([C@@H](C)NC(=O)N2CCN(c3ccnc(F)c3)C[C@H]2C)c1 [Example 112] | 1.32 | 0.0383 | –
C[C@@H]1CN(c2ccnc(F)c2)CCN1C(=O)N[C@H](C)c1cccc2occc12 [Example 113] | 0.122 | 0.0039 | –
C[C@@H]1CN(c2ccnc(F)c2)CCN1C(=O)N[C@H](C)c1cccc2c1CCO2 [Example 114] | 0.0303 | 0.0035 | –
[2H]C([2H])([2H])Oc1cccc([C@@H](C)NC(=O)N2CCN(c3ccnc(F)c3)C[C@H]2C)c1 [Example 115] | 0.138 | 0.0081 | –
[2H]C([2H])([2H])Oc1cccc([C@H](NC(=O)N2CCN(c3ccnc(F)c3)C[C@H]2C)C([2H])([2H])[2H])c1 [Example 116] | 0.127 | 0.0069 | –
C[C@@H](NC(=O)N1CCN(c2ccnc(F)c2)[C@@H](C)C1)c1cccc2c1CCO2 [Example 118] | 0.711 | 0.0162 | –
C[C@@H](NC(=O)N1CCN(c2ccnc(F)c2)[C@@H](C)C1)c1cccc2occc12 [Example 119] | 0.411 | 0.01 | –
C[C@@H](NC(=O)N1CCN(c2ccnc(F)c2)[C@@H](C)C1)c1cccc(OC(F)F)c1 [Example 120] | 3.97 | 0.0595 | –
C[C@@H](NC(=O)N1CCN(c2ccncc2F)CC1)c1ccccc1Cl [Example 124] | 1.16 | 0.0611 | –
COc1cccc([C@H](C)NC(=O)N2CCN(c3ccncc3F)CC2)c1Cl [Example 125] | 4.31 | 1.16 | –
COc1ccc(F)c([C@@H](C)NC(=O)N2CCN(c3ccncc3F)CC2)c1 [Example 126] | 0.924 | 0.0609 | –
C[C@@H](NC(=O)N1CCN(c2ccncc2F)CC1)c1cccc(OC(F)F)c1 [Example 127] | 0.427 | 0.0242 | –
O=C(NCc1cccc(OC(F)F)c1)N1CCN(c2ccncc2F)CC1 [Example 129] | 3.54 | 0.0845 | –
O=C(NCc1ccccc1Cl)N1CCN(c2ccncc2F)CC1 [Example 130] | 1.66 | 0.122 | –

SMILES | IC50 ([1]; A7R5, 1 h) [µM] | IC50 [3] [µM] | also measured
[2H]C([2H])([2H])Oc1cccc([C@H](NC(=O)N2CCN(c3ccncc3F)CC2)C([2H])([2H])[2H])c1 [Example 131] | 0.152 | 0.008 | –
[2H]C([2H])([2H])Oc1cccc([C@@H](C)NC(=O)N2CCN(c3ccncc3F)CC2)c1 [Example 132] | 0.185 | 0.0067 | –
COc1cccc([C@@H](C)NC(=O)N2CCN(c3ccncc3F)C[C@@H]2C)c1 [Example 133] | 2.44 | 0.167 | –
COc1ccc(F)c([C@@H](C)NC(=O)N2CCN(c3ccncc3F)C[C@H]2C)c1 [Example 134] | 0.108 | 0.0066 | –
C[C@@H]1CN(c2ccncc2F)CCN1C(=O)N[C@H](C)c1cccc(OC(F)F)c1 [Example 136] | 0.0531 | 0.0038 | –
COc1cccc([C@@H](C)NC(=O)N2CCN(c3ccncc3F)CC2CO)c1 (stereo partly shown) [Example 137] | 0.0798 | 0.0048 | –
COc1cccc(CNC(=O)N2CCN(c3ccncc3F)C[C@H]2C)c1 [Example 138] | 0.0975 | 0.0042 | –
C[C@@H]1CN(c2ccncc2F)CCN1C(=O)NCc1cccc(OC(F)F)c1 [Example 139] | 0.486 | 0.01 | –
C[C@@H]1CN(c2ccncc2F)CCN1C(=O)N[C@H](C)c1cccc2c1CCO2 [Example 141] | 0.0017 | 0.0018 | –
C[C@@H]1CN(c2ccncc2F)CCN1C(=O)N[C@H](C)c1cccc2occc12 [Example 142] | 0.0091 | 0.0026 | –
C[C@H](NC(=O)N1CCN(c2ccncc2F)C[C@H]1C)c1cccc2c1N(C)CCO2 [Example 144] | 0.674 | 0.0128 | –
C[C@@H](NC(=O)N1CCN(c2ccncc2F)[C@@H](C)C1)c1cccc(OC(F)F)c1 [Example 145] | 0.413 | 0.0124 | –
C[C@@H](NC(=O)N1CCN(c2ccncc2F)[C@@H](C)C1)c1ccccc1Cl [Example 146] | 2.09 | 0.11 | –
C[C@@H](NC(=O)N1CCN(c2ccncc2F)[C@@H](C)C1)c1cccc2c1CCO2 [Example 147] | 0.023 | 0.0032 | –
COc1cccc(CNC(=O)N2CCN(c3ccncc3F)[C@@H](C)C2)c1 [Example 150] | 0.707 | 0.0201 | –
COc1cccc([C@@H](C)NC(=O)N2CCN(c3ccncc3F)[C@@H]3C[C@@H]32)c1 [Example 151] | 0.703 | 0.0519 | –
COc1cccc([C@@H](C)NC(=O)N2CCN(c3ccncc3F)[C@H]3C[C@H]32)c1 [Example 152] | 0.248 | 0.0163 | –
COc1cccc([C@@H](C)NC(=O)N2C[C@H]3C[C@@H]2CN3c2ccncc2F)c1 [Example 153] | 2.43 | 0.238 | –
COc1cccc([C@@H](C)NC(=O)N2CCN(c3ccncc3F)CC2C)c1 (stereo partly shown) [Example 154] | 0.0602 | 0.0196 | –
COc1cccc([C@@H](C)NC(=O)N2CCN(c3ccncc3Cl)C[C@H]2C)c1 [Example 155] | 0.0422 | 0.0027 | –
C[C@@H](N)[C@H]1CC[C@H](C(=O)Nc2ccncc2)CC1 [Example Y27632] | – | – | survival at one week after ischemia [4]: 75%
C[C@H]1CNCCCN1S(=O)(=O)c1cccc2cncc(F)c12 [Ripasudil] | – | – | intraocular pressure reduction [5]: Significant intraocular pressure reduction
